Measured values reported in patent publication US11759412B2, “Personal care compositions with glutathione precursor comprising 4-substituted resorcinols and amino acids” (Conopco, Inc., priority 2016, dated 2023).

Tests used:
Format in all cases: cell-based
Aged Human Keratinocytes = experiment: Glutathione Assay (total glutathione, GSH-GSSG Glo, menadione challenge); details: for synergistic increase in GSH synthesis, combination with GAP amino acids vs either alone: resorcinol/test reagent combined with GAP, + menadione
Method: Aged Human Keratinocytes (Cascade Biologics, now ThermoFisher Scientific, Waltham, Mass.) were maintained in Epi Life® medium containing 60 uM calcium chloride and 1% Human Keratinocyte Growth Supplement (both media components from ThermoFisher Scientific) in a humidified incubator with an atmosphere containing 5% CO2 at 37° C. The medium was refreshed every 2-3 days. Subsequently, cells were trypsinized at 90% confluency and seeded at a density of 1×10^4 per well into 96-well plates with white wall and clear bottom. One or two days after seeding, cell medium was replaced with Hank's Balanced Salt Solution (HBSS), and keratinocytes were pre-treated with GAP (or 0.12-0.240 mM sodium hydroxide vehicle control, pH 7.5) alone or in combination with additional test reagents described above or L-cystine esters alone for 1-2 hours. The concentration of all amino acids constituting the GAP mixture used in this assay are designated in the data tables, and fully described in the abbreviations list below.
After one or two hours of pre-treatment with GAP or additional test reagents, alone or in combination, keratinocytes were then challenged with 25 uM menadione (Sigma-Aldrich), a known inducer of oxidative stress. After 18-20 hours, cells were harvested and analyzed for total glutathione levels using a commercially available kit (GSH-GSSG GLo Assay, Promega), a luminescence-based system for the detection and quantification of total glutathione in cultured cells. In summary, after cell treatment, the media was removed and replaced with a cell lysis reagent for 5 minutes at 20-25° C.; note, all remaining steps were also conducted at 20-25° C. Next, a luciferase generation reagent was added to each well and incubated for 30 minutes. Following this step, a luciferin detection reagent was added to each well and plates were incubated for 15 minutes. Finally, plates were then read for luminescence in a FlexStation 3 plate reader (Molecular Devices). Total glutathione levels were calculated after interpolation of glutathione concentrations from a standard curve. Experimental conditions were typically conducted in at least triplicate determinations. Statistical significance was calculated using 1-way ANOVA. Percent protection was calculated by using the calculated glutathione levels from each experiment in the following equation: […]

Human Keratinocytes [1] = experiment: Reactive Oxygen Species (ROS) Assay (CellROX green, menadione); details: for synergistic decrease in ROS production, combination with GAP amino acids vs either alone: resorcinol/test reagent combined with GAP
Method: Human Keratinocytes (Promocell, Heidelberg, Germany) were maintained in EpiLife® keratinocyte medium containing 60 uM calcium chloride and 1% Human Keratinocyte Growth Supplement (HKGS) in a humidified incubator with an atmosphere containing 5% CO2 at 37° C. The medium was refreshed every other day. Subsequently, cells were trypsinized at 90% confluency and seeded at a density of 1-2×10^4 per well into 96-well plates with black wall and clear bottom. On the second day after seeding, cell medium was replaced with Hank's Balanced Salt Solution (HBSS) with or without menadione (10-25 uM), GAP (typically at 49 uM pyroglutamic acid, 60 uM cystine, 194 uM glycine), GAP vehicle (0.2 mM NaOH, pH 7.5), above-described additional test reagents, or combinations of GAP with additional test reagents or L-cystine esters alone, and incubated for additional 18 hours. For ROS detection, CellROX green (Life Tech, Thermo Fisher Scientific, Rockford, USA) reagent was added into each well to a final concentration of 15-25 uM and incubated for additional 2-4 hours at 37° C. in a humidified incubator. The ROS fluorescence was detected using a Tecan microplate reader (Excitation/Emission=490/525). Relative ROS production was calculated with normalization based on the vehicle control treatment which was set to 100%. Where indicated, percent protection was calculated as a comparison to menadione alone treatment, using the measured relative fluorescent units in the following equation: […]
ROS levels were evaluated together with cell viability because it is possible to get a false negative for ROS if treatment is so toxic, that at the time of assay, cells are dead (and there are no longer any detectable ROS). Decrease in ROS levels is meaningful if cells are still viable.

Human Keratinocytes [2] = experiment: Cell Viability Assay (CCK-8, menadione); details: for cell viability (% vehicle of control): Table 3B
Method: Human Keratinocytes (Promocell, Heidelberg, Germany) were maintained in EpiLife® keratinocyte medium containing 60 uM calcium chloride and 1% Human Keratinocyte Growth Supplement (HKGS). The medium was refreshed every other day. Subsequently, cells were trypsinized at 90% confluency and seeded at a density of 2×10^4 per well into 96-well transparent tissue culture plates. On the second day after seeding, cell medium was replaced with treatments as described above in ROS assay section. After 18 hours, […] (CCK-8) reagent (Dojindo, Kumamoto, Japan) was diluted 1:10 in HBSS and incubated with cells for 4 h at 37° C. in a humidified incubator. Optical absorption at 450 nm was measured using a Tecan Safire2 plate reader. Relative viability was calculated with normalization based on the vehicle control treatment, which was set to 100%.
Where indicated, percent protection was calculated as a comparison to menadione alone treatment, using the measured relative absorbance units in the following equation: […]

[3] = Table 3A, Olivetol or 3-hydroxytyrosol 10 uM + menadione
[4] = Table 3A, Olivetol or 3-hydroxytyrosol 20 uM + menadione
[5] = Table 3A, Olivetol or 3-hydroxytyrosol 50 uM + menadione
[6] = Table 1B, BR 50 uM where present, + menadione 25 uM
[7] = Table 2B, resorcinol (BR or IPR) 10 uM + menadione
[8] = Table 2B, resorcinol (BR or IPR) 50 uM + menadione
[9] = Table 2B, resorcinol (BR or IPR) 100 uM + menadione
[10] = Table 2E, BR 20 uM where present, + menadione
[11] = Table 1H, CDME 20 uM + menadione
[12] = Table 1H, CDME 40 uM + menadione
[13] = Table 1H, CDME 80 uM + menadione
[14] = Table 1H, CDME 160 uM + menadione
[15] = Table 1F, DTBC 20 uM + menadione
[16] = Table 3C, MR 10 uM where present, + menadione
[17] = Table 3D, 4-CHMR 10 uM + menadione
[18] = Table 3D, 4-CHMR 20 uM + menadione
[19] = Table 3D, 4-CHMR 50 uM + menadione

With OCCc1ccc(O)c(O)c1 [3-hydroxytyrosol] the “% Protection (improvement vs vehicle control + menadione)” value (Aged Human Keratinocytes; [3]) was −3%, the “Glutathione Synthesis, Mean (uM glutathione)” value (“Glutathione Synthesis, Mean” below) (Aged Human Keratinocytes; [3]) was 0.07 µM and the “% Protection (improvement vs vehicle control + menadione)” value (Aged Human Keratinocytes; [4]) was −5%. For the same compound, the “Glutathione Synthesis, Mean” value (Aged Human Keratinocytes; [4]) was 0.03 µM, the “% Protection (improvement vs vehicle control + menadione)” value (Aged Human Keratinocytes; [5]) was −4% and the “Glutathione Synthesis, Mean” value (Aged Human Keratinocytes; [5]) was 0.04 µM. For the same compound, the “synergistic increase in GSH synthesis, combination with GAP amino acids vs either alone” value (shortened to “synergistic increase in GSH synthesis”) (Aged Human Keratinocytes) was “no synergistic effect”, the “ROS production (% of vehicle control)” value (Human Keratinocytes [1]; Table 3B, 3-hydroxytyrosol 10 uM + menadione) was 241.6% and the “ROS production (% of vehicle control)” value (Human Keratinocytes [1]; Table 3B, 3-hydroxytyrosol 20 uM + menadione) was 229.9^1%. The “synergistic decrease in ROS production, combination with GAP amino acids vs either alone” value (“synergistic decrease in ROS production” for short) (Human Keratinocytes [1]; + menadione) was “no synergistic effect”, the “cell viability (% vehicle of control)” value (Human Keratinocytes [2]; 3-hydroxytyrosol 10 uM + menadione) was 16.8% and the “cell viability (% vehicle of control)” value (Human Keratinocytes [2]; 3-hydroxytyrosol 20 uM + menadione) was 16.5%.

For CCCCc1ccc(O)cc1O [BR, 4-butylresorcinol], the “% Protection (improvement vs. vehicle control + menadione)” value (Aged Human Keratinocytes; [6]) was −1^1%, the “Glutathione Synthesis, Mean” value (Aged Human Keratinocytes; [6]) was 0.06^1 uM and the “% Protection (improvement vs. vehicle control + menadione)” value (Aged Human Keratinocytes; [7]) was 5%. The “Glutathione Synthesis, Mean” value (Aged Human Keratinocytes; [7]) was 0.10 µM, the “% Protection (improvement vs. vehicle control + menadione)” value (Aged Human Keratinocytes; [8]) was 3% and the “Glutathione Synthesis, Mean” value (Aged Human Keratinocytes; [8]) was 0.07 µM. The “% Protection (improvement vs. vehicle control + menadione)” value (Aged Human Keratinocytes; [9]) was 6%, the “Glutathione Synthesis, Mean” value (Aged Human Keratinocytes; [9]) was 0.13 µM and the “synergistic increase in GSH synthesis” value (Aged Human Keratinocytes) was “synergistic increase”. The “% protection (improvement vs vehicle control + menadione), ROS” value (Human Keratinocytes [1]; [10]) was 0.95%, the “Mean ROS production (% of vehicle control)” value (Human Keratinocytes [1]; [10]) was 220.7% and the “synergistic decrease in ROS production” value (Human Keratinocytes [1]; + menadione) was “synergistic decrease”. The “% Protection (improvement vs vehicle control + menadione), cell viability” value (Human Keratinocytes [2]; [10]) was 11.75^3% and the “Cell viability (% of control)” value (Human Keratinocytes [2]; [10]) was 74.1^3%.

COC(=O)[C@@H](N)CSSC[C@H](N)C(=O)OC.Cl.Cl [CDME, L-Cystine dimethyl ester dihydrochloride] was tested, and the “% Protection (improvement vs. vehicle control + menadione), ROS” value (Human Keratinocytes [1]; [11]) was 18.2^2%, the “ROS production (% of vehicle control)” value (Human Keratinocytes [1]; [11]) was 107.8^2% and the “% Protection (improvement vs. vehicle control + menadione), ROS” value (Human Keratinocytes [1]; [12]) was 15.5^1,2%. The “ROS production (% of vehicle control)” value (Human Keratinocytes [1]; [12]) was 111.3^1,2%, the “% Protection (improvement vs. vehicle control + menadione), ROS” value (Human Keratinocytes [1]; [13]) was 13.3^1,2% and the “ROS production (% of vehicle control)” value (Human Keratinocytes [1]; [13]) was 114.3^1,2%. For the same compound, the “% Protection (improvement vs. vehicle control + menadione), ROS” value (Human Keratinocytes [1]; [14]) was 25.7^2%, the “ROS production (% of vehicle control)” value (Human Keratinocytes [1]; [14]) was 97.9^2% and the “% protection (improvement vs. vehicle control + menadione), cell viability” value (Human Keratinocytes [2]; [11]) was 30.2^1,2%. For the same compound, the “Cell viability (% of vehicle control)” value (Human Keratinocytes [2]; [11]) was 90.9^1,2%, the “% protection (improvement vs. vehicle control + menadione), cell viability” value (Human Keratinocytes [2]; [12]) was 33.4^1,2% and the “Cell viability (% of vehicle control)” value (Human Keratinocytes [2]; [12]) was 93.1^1,2%. For the same compound, the “% protection (improvement vs. vehicle control + menadione), cell viability” value (Human Keratinocytes [2]; [13]) was 24.6^1,2%, the “Cell viability (% of vehicle control)” value (Human Keratinocytes [2]; [13]) was 87.0^1,2% and the “% protection (improvement vs. vehicle control + menadione), cell viability” value (Human Keratinocytes [2]; [14]) was 51.7^1,2%. The “Cell viability (% of vehicle control)” value (Human Keratinocytes [2]; [14]) was 105.9^1,2%.

For CCOC(=O)[C@@H](N)CSSC[C@H](N)C(=O)OCC.Cl.Cl [DEC, Diethyl L-cystinate dihydrochloride], the “% Protection (improvement vs. vehicle control + menadione), ROS” value (Human Keratinocytes [1]; Table 1D, DEC 20 uM + menadione) was 38.0^1,2%.

In the case of CC(C)(C)OC(=O)[C@@H](N)CSSC[C@H](N)C(=O)OC(C)(C)C.Cl.Cl [DTBC, Ditert-butyl L-cystinate dihydrochloride], the “% Protection (improvement vs. vehicle control + menadione), ROS” value (Human Keratinocytes [1]; [15]) is reported as 2.2%, the “% protection (improvement vs. vehicle control + menadione), cell viability” value (Human Keratinocytes [2]; [15]) is reported as 6.0^1% and the “% protection (improvement vs. vehicle control + menadione), cell viability” value (Human Keratinocytes [2]; Table 1F, DTBC 40 uM + menadione) is reported as 3.0^1%. The “% protection (improvement vs. vehicle control + menadione), cell viability” value (Human Keratinocytes [2]; Table 1F, DTBC 80 uM + menadione) was −0.1^1%.

In the case of CC(C)c1ccc(O)cc1O [IPR, 4-isopropylresorcinol], the “% Protection (improvement vs. vehicle control + menadione)” value (Aged Human Keratinocytes; [7]) is reported as 6%, the “Glutathione Synthesis, Mean” value (Aged Human Keratinocytes; [7]) is reported as 0.12 µM and the “% Protection (improvement vs. vehicle control + menadione)” value (Aged Human Keratinocytes; [8]) is reported as 6%. The “Glutathione Synthesis, Mean” value (Aged Human Keratinocytes; [8]) was 0.12 µM, the “% Protection (improvement vs. vehicle control + menadione)” value (Aged Human Keratinocytes; [9]) was 8% and the “Glutathione Synthesis, Mean” value (Aged Human Keratinocytes; [9]) was 0.16 µM. The “synergistic increase in GSH synthesis” value (Aged Human Keratinocytes) was “synergistic increase”.

In the case of Cc1ccc(O)cc1O [MR, 4-methylresorcinol], the “Mean ROS production (% of vehicle control)” value (Human Keratinocytes [1]; [16]) is reported as 233.5^1%, the “synergistic decrease in ROS production” value (Human Keratinocytes [1]; + menadione) is reported as “did not result” and the “Cell viability (% of vehicle control)” value (Human Keratinocytes [2]; [16]) is reported as 45.3%.

CCCCCc1cc(O)cc(O)c1 [Olivetol, 5-pentylresorcinol] was tested, and the “% Protection (improvement vs vehicle control + menadione)” value (Aged Human Keratinocytes; [3]) was −1%, the “Glutathione Synthesis, Mean” value (Aged Human Keratinocytes; [3]) was 0.14 µM and the “% Protection (improvement vs vehicle control + menadione)” value (Aged Human Keratinocytes; [4]) was −1%. For the same compound, the “Glutathione Synthesis, Mean” value (Aged Human Keratinocytes; [4]) was 0.13 µM, the “% Protection (improvement vs vehicle control + menadione)” value (Aged Human Keratinocytes; [5]) was −2% and the “Glutathione Synthesis, Mean” value (Aged Human Keratinocytes; [5]) was 0.11 µM. For the same compound, the “synergistic increase in GSH synthesis” value (Aged Human Keratinocytes) was “did not result”.

With Oc1ccc(CC2CCCCC2)c(O)c1 [Sample 4-CHMR, 4-(cyclohexylmethyl)resorcinol] the “% Protection” value (Aged Human Keratinocytes; [17]) was −4.6%, the “Glutathione Synthesis, Mean” value (Aged Human Keratinocytes; [17]) was 0.07 µM and the “% Protection” value (Aged Human Keratinocytes; [18]) was −6.2%. For the same compound, the “Glutathione Synthesis, Mean” value (Aged Human Keratinocytes; [18]) was 0.026 µM, the “% Protection” value (Aged Human Keratinocytes; [19]) was −1.7% and the “Glutathione Synthesis, Mean” value (Aged Human Keratinocytes; [19]) was 0.147 µM. For the same compound, the “synergistic increase in GSH synthesis” value (Aged Human Keratinocytes) was “did not result”.
